# Laboratory results: PubChem BioAssay (NCI)
# Several values for one entry are separate records, joined by “and”; a condition that tells them apart may be missing. Equal values may be shown once.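 48-hour exposure; five concentrations; linearly interpolated endpoints. The concentration for 50% growth inhibition is given as GI50. The concentration for full growth arrest is given as TGI.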
# Tested on: CCRF-CEM leukemia
# Experiment: inhibition of tumour cell growth, NCI panel, 48 h
SMILES,GI50,TGI
COc1cc(OC)c(/C=C/C(=O)c2c(OC)cccc2OC)c(OC)c1,1.23 µM,> 100 µM
COc1cc[nH]c1/C=C1\C(=O)Nc2ccccc21,13.1 µM,> 25 µM
CC(=O)OC[C@]12CC[C@H]3[C@@H](C[C@H]4O[C@]45[C@@H](O)C=CC(=O)[C@]35C)[C@@H]1CC[C@@H]2[C@H](C)[C@H]1CC(C)=C(C)C(=O)O1,0.229 µM and 0.112 µM,0.745 µM and 1.82 µM
O=C(Nc1ccc(Cl)cc1)c1cc(-c2ccc(F)cc2)c2sc(=O)[nH]c2n1,0.657 µM,9.9 µM
Cc1cn2c(/C=C3/C(=O)N(C)c4ccccc43)c(C)nc2s1,14.5 µM,> 100 µM
Cc1nc2ccccc2c(=O)n1NC(=O)c1ccccn1,–,> 100 µM
Cc1ccc(C(=NN=C(N)N)c2ccc(C)cc2)cc1,0.559 µM,12.2 µM
CCS(=O)(=O)c1ccc(OC)c(Nc2ncc(-c3cccc(OC)c3)o2)c1,10.7 µM,> 25 µM
CCCCN=C(N)c1ccc(OCCSCCOc2ccc(C(N)=NCCCC)cc2)cc1,20.7 µM,> 100 µM
COC(=O)c1cccc2cccc(C(=O)Nc3ccc(C)cc3C)c12,–,> 100 µM
CC(C)c1ccc(C(=O)Nc2sc3c(c2C(N)=O)CCC(=O)C3)cc1,0.215 µM,4.27 µM
Cc1ccccc1N(CCC#N)C1=NN(C(=O)CC(=O)Nc2ccccc2)C(c2ccccc2)C1 (centres undefined),–,> 100 µM
CC1(n2nc(-c3ccccc3)n(-c3ccccc3)c2=O)CSC1,–,> 100 µM

# Tested on: MOLT-4 leukemia
# Experiment: inhibition of tumour cell growth, NCI panel, 48 h
SMILES,GI50,TGI
COc1cc(OC)c(/C=C/C(=O)c2c(OC)cccc2OC)c(OC)c1,1.17 µM,> 100 µM
COc1cc[nH]c1/C=C1\C(=O)Nc2ccccc21,11 µM,> 25 µM
CC(=O)OC[C@]12CC[C@H]3[C@@H](C[C@H]4O[C@]45[C@@H](O)C=CC(=O)[C@]35C)[C@@H]1CC[C@@H]2[C@H](C)[C@H]1CC(C)=C(C)C(=O)O1,0.289 µM and 0.191 µM,0.878 µM and 0.615 µM
O=C(Nc1ccc(Cl)cc1)c1cc(-c2ccc(F)cc2)c2sc(=O)[nH]c2n1,0.721 µM,4.02 µM
Cc1cn2c(/C=C3/C(=O)N(C)c4ccccc43)c(C)nc2s1,4.84 µM,26.8 µM
Cc1nc2ccccc2c(=O)n1NC(=O)c1ccccn1,–,> 100 µM
Cc1ccc(C(=NN=C(N)N)c2ccc(C)cc2)cc1,0.52 µM,4.45 µM
CCS(=O)(=O)c1ccc(OC)c(Nc2ncc(-c3cccc(OC)c3)o2)c1,13.5 µM,> 25 µM
CCCCN=C(N)c1ccc(OCCSCCOc2ccc(C(N)=NCCCC)cc2)cc1,20.9 µM,> 100 µM
COC(=O)c1cccc2cccc(C(=O)Nc3ccc(C)cc3C)c12,–,> 100 µM
CC(C)c1ccc(C(=O)Nc2sc3c(c2C(N)=O)CCC(=O)C3)cc1,0.461 µM,3.17 µM
Cc1ccccc1N(CCC#N)C1=NN(C(=O)CC(=O)Nc2ccccc2)C(c2ccccc2)C1 (centres undefined),–,> 100 µM
CC1(n2nc(-c3ccccc3)n(-c3ccccc3)c2=O)CSC1,–,> 100 µM

# Tested on: HCC-2998 colon
# Experiment: inhibition of tumour cell growth, NCI panel, 48 h
SMILES,GI50,TGI [µM]
COc1cc(OC)c(/C=C/C(=O)c2c(OC)cccc2OC)c(OC)c1,1.15 µM,6.91
COc1cc[nH]c1/C=C1\C(=O)Nc2ccccc21,> 20.7 µM,> 25
CC(=O)OC[C@]12CC[C@H]3[C@@H](C[C@H]4O[C@]45[C@@H](O)C=CC(=O)[C@]35C)[C@@H]1CC[C@@H]2[C@H](C)[C@H]1CC(C)=C(C)C(=O)O1,0.822 µM and 0.795 µM,2.07
O=C(Nc1ccc(Cl)cc1)c1cc(-c2ccc(F)cc2)c2sc(=O)[nH]c2n1,2.25 µM,10.9
Cc1cn2c(/C=C3/C(=O)N(C)c4ccccc43)c(C)nc2s1,7.97 µM,33.5
Cc1nc2ccccc2c(=O)n1NC(=O)c1ccccn1,–,> 100
Cc1ccc(C(=NN=C(N)N)c2ccc(C)cc2)cc1,0.683 µM,1.93
CCS(=O)(=O)c1ccc(OC)c(Nc2ncc(-c3cccc(OC)c3)o2)c1,23 µM,> 25
CCCCN=C(N)c1ccc(OCCSCCOc2ccc(C(N)=NCCCC)cc2)cc1,5.87 µM,> 100
COC(=O)c1cccc2cccc(C(=O)Nc3ccc(C)cc3C)c12,–,> 100
CC(C)c1ccc(C(=O)Nc2sc3c(c2C(N)=O)CCC(=O)C3)cc1,1.85 µM,4.23
Cc1ccccc1N(CCC#N)C1=NN(C(=O)CC(=O)Nc2ccccc2)C(c2ccccc2)C1 (centres undefined),–,> 100
CC1(n2nc(-c3ccccc3)n(-c3ccccc3)c2=O)CSC1,–,> 100

# Tested on: OVCAR-8 ovarian
# Experiment: inhibition of tumour cell growth, NCI panel, 48 h
SMILES,GI50,TGI [µM]
COc1cc(OC)c(/C=C/C(=O)c2c(OC)cccc2OC)c(OC)c1,1.43 µM,> 100
COc1cc[nH]c1/C=C1\C(=O)Nc2ccccc21,14.2 µM,> 25
CC(=O)OC[C@]12CC[C@H]3[C@@H](C[C@H]4O[C@]45[C@@H](O)C=CC(=O)[C@]35C)[C@@H]1CC[C@@H]2[C@H](C)[C@H]1CC(C)=C(C)C(=O)O1,0.331 µM and 0.285 µM,0.899
O=C(Nc1ccc(Cl)cc1)c1cc(-c2ccc(F)cc2)c2sc(=O)[nH]c2n1,1.72 µM,4.93
Cc1cn2c(/C=C3/C(=O)N(C)c4ccccc43)c(C)nc2s1,29.2 µM,> 100
Cc1nc2ccccc2c(=O)n1NC(=O)c1ccccn1,–,> 100
Cc1ccc(C(=NN=C(N)N)c2ccc(C)cc2)cc1,0.773 µM,3.59
CCS(=O)(=O)c1ccc(OC)c(Nc2ncc(-c3cccc(OC)c3)o2)c1,9.66 µM,> 25
CCCCN=C(N)c1ccc(OCCSCCOc2ccc(C(N)=NCCCC)cc2)cc1,10.5 µM,> 100
COC(=O)c1cccc2cccc(C(=O)Nc3ccc(C)cc3C)c12,–,> 100
CC(C)c1ccc(C(=O)Nc2sc3c(c2C(N)=O)CCC(=O)C3)cc1,0.71 µM,13.3
Cc1ccccc1N(CCC#N)C1=NN(C(=O)CC(=O)Nc2ccccc2)C(c2ccccc2)C1 (centres undefined),–,> 100
CC1(n2nc(-c3ccccc3)n(-c3ccccc3)c2=O)CSC1,–,> 100

# Tested on: HOP-62 NSCLC
# Experiment: inhibition of tumour cell growth, NCI panel, 48 h
SMILES,GI50 [µM],TGI [µM]
COc1cc(OC)c(/C=C/C(=O)c2c(OC)cccc2OC)c(OC)c1,0.742,> 100
COc1cc[nH]c1/C=C1\C(=O)Nc2ccccc21,> 19.3,> 25
CC(=O)OC[C@]12CC[C@H]3[C@@H](C[C@H]4O[C@]45[C@@H](O)C=CC(=O)[C@]35C)[C@@H]1CC[C@@H]2[C@H](C)[C@H]1CC(C)=C(C)C(=O)O1,1.51,3.52
O=C(Nc1ccc(Cl)cc1)c1cc(-c2ccc(F)cc2)c2sc(=O)[nH]c2n1,2.04,5.69
Cc1cn2c(/C=C3/C(=O)N(C)c4ccccc43)c(C)nc2s1,30,> 100
Cc1nc2ccccc2c(=O)n1NC(=O)c1ccccn1,–,> 100
Cc1ccc(C(=NN=C(N)N)c2ccc(C)cc2)cc1,1.21,12.5
CCS(=O)(=O)c1ccc(OC)c(Nc2ncc(-c3cccc(OC)c3)o2)c1,9.41,> 25
CCCCN=C(N)c1ccc(OCCSCCOc2ccc(C(N)=NCCCC)cc2)cc1,12.1,> 100
COC(=O)c1cccc2cccc(C(=O)Nc3ccc(C)cc3C)c12,–,> 100
CC(C)c1ccc(C(=O)Nc2sc3c(c2C(N)=O)CCC(=O)C3)cc1,3.04,18.1
Cc1ccccc1N(CCC#N)C1=NN(C(=O)CC(=O)Nc2ccccc2)C(c2ccccc2)C1 (centres undefined),–,> 100
